One data set deals with SU.86.86 cells. Kind of data set: Cytotoxicity assay (Dojindo CCK8 Kit). In kind it is cell-based, human. The conditions noted are these: 24 hours, 21 to 2690 nM. Here is the method: SU.86.86 were treated with Compound 16 for 24 hours over a range of concentrations (40 to 512 ng/mL corresponding to 21 to 2690 nM). Pam2CSK4 was added to SU.86.86 for 24 hours over the same range of concentrations (40 to 512 ng/mL). Three different experiments were performed in triplicate (n≥3). Data were analyzed with GraphPad Prism software.

Data set [1] addresses T1, TLR2 (Homo sapiens, UniProt O60603). Kind of data set: In vitro TLR2 functional bioassay (NF-κB luciferase reporter). The settings on record: HEK-293/hTLR2 cells; for agonist activity compared to TLR2 agonist controls (Pam2CSK4, Pam3CSK4, HKLM): all at 1 μg/mL. In kind it is cell-based. Here is the method: The in vitro TLR2 functional bioassay was developed and optimized for use in high-throughput screening of soluble compound libraries to identify both TLR2 agonists and antagonists. The bioassay measures the induction of NF-κB signaling via TLR2 in HEK-293/hTLR2 cells (Invivogen) and parental HEK-293 cells as a negative control. Cells were seeded at a density of 40,000 per well using a WellMate microplate dispenser (Thermo Fisher Scientific/Matrix) in black 96-well plates with opaque white wells (PerkinElmer, Waltham, Mass.) and then incubated at 37° C. On day 2, the cells were transiently transfected with pNifty-Luc(InvivoGen, San Diego, Calif.), an NF-κB inducible reporter plasmid expressing the luciferase reporter gene (Schindler et al., Three NF-kappa B binding sites in the human E-selectin gene required for maximal tumor necrosis factor alpha-induced expression. Mol Cell Biol 1994, 14(9):5820-31) using an optimized 4:1 ratio by volume of FugeneHD transfection reagent (Promega, Madison, Wis.) to pNifty-Luc plasmid DNA (1 μg/mL). On day 3, the cells were stimulated with either test peptides or controls adjusted to a final concentration of 1 μg/mL using a NanoDrop spectrophotometer, ND1000 (Thermo Fisher Scientific). Synthetic di- and triacylated LP ligands, Pam2CSK4 and Pam3CSK4 (InvivoGen), were used as positive controls. TNF-α (InvivoGen) was also used as a transfection control that induces NF-κB independently of TLR2. On day 4 after 24 h of peptide stimulation, luciferase induced activity by the induction of NF-κB was measured. The medium was aspirated from the wells using an ELx405 SelectCW plate washer (BioTek, Winooski, Vt.), and 150 μg/mL D-luciferin (Gold Biotechnology, St. Louis, Mo.) was dispensed using the microplate dispensor. The plates were incubated at 37° C. for 5 min. The luminescence intensity was measured using the standard luminescence protocol on a Victor X4 multilabel plate reader equipped with a plate stacker for readout of multiple plates at a time (PerkinElmer, Waltham, Mass.). For each in vitro TLR2 bioassay, at least three different experiments were performed in triplicate (n≥3). Data were analyzed with GraphPad Prism software, and curves were generated with the appropriate nonlinear fit regression analysis.
Target sequence in this assay (O60603 21-784): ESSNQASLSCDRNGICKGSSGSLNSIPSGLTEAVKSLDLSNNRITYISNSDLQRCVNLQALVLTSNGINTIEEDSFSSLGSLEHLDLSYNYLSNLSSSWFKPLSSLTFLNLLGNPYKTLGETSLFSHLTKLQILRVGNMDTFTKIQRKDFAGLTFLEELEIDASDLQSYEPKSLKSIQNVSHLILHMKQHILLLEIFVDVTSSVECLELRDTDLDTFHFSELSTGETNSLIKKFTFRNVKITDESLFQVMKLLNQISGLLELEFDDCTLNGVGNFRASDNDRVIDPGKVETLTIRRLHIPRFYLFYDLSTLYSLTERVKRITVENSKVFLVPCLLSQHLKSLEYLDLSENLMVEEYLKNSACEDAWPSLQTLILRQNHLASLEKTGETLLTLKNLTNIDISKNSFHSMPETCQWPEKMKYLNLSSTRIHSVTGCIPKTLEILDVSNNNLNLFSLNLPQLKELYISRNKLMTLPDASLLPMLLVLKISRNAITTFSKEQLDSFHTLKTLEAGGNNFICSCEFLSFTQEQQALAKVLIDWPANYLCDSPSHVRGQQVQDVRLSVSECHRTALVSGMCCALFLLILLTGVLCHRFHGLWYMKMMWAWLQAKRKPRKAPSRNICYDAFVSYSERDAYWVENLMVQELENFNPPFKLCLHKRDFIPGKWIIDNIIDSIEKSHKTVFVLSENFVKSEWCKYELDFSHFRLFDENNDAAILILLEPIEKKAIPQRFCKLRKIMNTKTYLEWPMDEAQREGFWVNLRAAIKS

The target in data set [2] is T1, TLR2. Kind of data set: In cyto Europium TRF competition binding assay. Also noted: SU.86.86 pancreatic cells with endogenous expression of TLR2 were used for the assay; host or cells: SU.86.86 pancreatic adenocarcinoma cells. The settings on record: competition with 90 nM Eu-labeled compound 11, SU.86.86 cells, 1 h 37° C.; read-out: TLR2 Binding Affinity (Ki). How it is done: Europium Time-Resolved Fluorescence (TRF) binding assays were performed as described in Handle et al. with slight modifications using SU.86.86 cells plated in 96-well black plates with white opaque wells (PerkinElmer) (Handl et al., Lanthanide-based time-resolved fluorescence of in cyto ligand-receptor interactions. Anal Biochem 2004, 330(2):242-50; Handl et al., Development of a lanthanide-based assay for detection of receptor-ligand interactions at the delta-opioid receptor. Anal Biochem 2005, 343(2):299-307; Josan et al., Solid-phase synthetic strategy and bioevaluation of a labeled delta-opioid receptor ligand Dmt-Tic-Lys for in vivo imaging. Org Lett 2009, 11(12):2479-82). Cells were grown in the 96-well plates for 2 days reaching approximately 80% confluency. Competition binding assays were performed to test the TLR2 binding specificity of the test ligand using SU.86.86 cells. On the day of the experiment, the cell culture media was aspirated and 50 μL of nonlabeled test ligand was added in a series of decreasing concentrations (1 μM to 0.01 nM) followed by 50 μL of the competing Eu-labeled ligand 11 (Huynh et al., Novel Toll-like Receptor 2 Ligands for Targeted Pancreatic Cancer Imaging and Immunotherapy. J Med Chem 2012) at a fixed concentration of 90 nM. Cells were incubated with labeled and unlabeled ligands for 1 h at 37° C. Following incubation, cells were washed three times to remove unbound ligand. Next, 100 μL of DELFIA Enhancement Solution (PerkinElmer) was added to each well. Cells were incubated for 30 min at 37° C. prior to reading. The plates were read on PerkinElmer VICTOR X4 Multilabel reader using the standard Europium TRF protocol. To determine the mean statistical analysis was performed using GraphPad Prism software. Binding of the monoacyl TLR2 ligand (compound 14 of Table 2) was tested using the (Eu)DTPA chelate version of the diacyl TLR2 ligand (compound 11 used in Huynh et al, Id.) in a time-resolved fluorescence competition binding assay. SU.86.86 pancreatic cells with endogenous expression of TLR2 were used for the assay.
Target sequence in this assay (O60603 21-784): as above

In data set [3] the target is T1, TLR2. The conditions noted are these: Huynh et al.; read-out: binding affinity (Ki); cited from earlier work.
Target sequence in this assay (O60603 21-784, species assumed): as the sequence (O60603 21-784) above
For data set [4], the system named is TLR2 expressing human pancreatic tumor xenografts (SU.86.86 cells). Kind of data set: In vivo TLR2 selectivity (blocking) fluorescence imaging. Also noted: species or system nude mice. How it is done: Female athymic nude mice 6-8 weeks old (Harlan) bearing human pancreatic tumor xenografts of SU.86.86 cells on the right flank were used. Mouse weights and tumor volumes were determined using caliper measurements and the formula: volume (mm3)=(length×width^2)/2. Images were acquired when the tumors reached an average size of 500 mm^3. For the blocked group, a co-injection of 100 nmol/kg of the fluorescently labeled Compound 16 plus 2 μmol/kg Pam2CSK4 (a 20-fold excess) was administered via tail vein injection; for the unblocked group, 100 nmol/kg Compound 16 was administered. Fluorescence images were acquired at time 0 and 24 h using the Caliper Xenogen IVIS200 system (PerkinElmer) with the 710-760 nm excitation and 810-875 nm emission filter set. The fluorescence was quantified using Living Image software, in which the quantified signals were corrected for both instrument and mouse background subtractions. The quantified fluorescence was then plotted using GraphPad Prism software and underwent statistical analysis using Student's t-test.

“Also recorded” adds a separate entry of the source. Where two headings read alike, the source gives them in different places.

The text below walks through data of US10118942B2, “Toll-like receptor 2 ligands and methods of making and using thereof” (H. LEE MOFFITT CANCER CENTER AND RESEARCH INSTITUTE, INC., priority 2015, dated 2018).

For Pam2CSK4 [reference compound], in the data set on SU.86.86 cells, the cell viability result is “cell viability decreases at higher concentrations past 336 nM”.

The term EC50 denotes the concentration that produces a half-maximal response. A word on the Ki: it is a measure of affinity in units of concentration, obtained from inhibition or displacement. `CCCCCCCCCCCCCCCC(=O)OCCSC[C@H](NC(=O)COCC(=O)NCCCOCCOCCOCCCNC(C)=O)C(=O)NCC(=O)N[C@H](CO)C(=O)NCCCOCCOCCOCCCNC(=O)COCC(N)=O` [Compound 14, Ac-Pego-Cys(S-[palmitoyloxyethyl])-Gly-DSer-PEGO-NH2]: at TLR2 [1] (0.001 ng/mL to 10 μg/mL, read-out: EC50, TLR2 agonistic activity), the 50% effective concentration (EC50) was determined as 674 nM. Moreover, the “agonist activity compared to TLR2 agonist controls (Pam2CSK4, Pam3CSK4, HKLM)” value on TLR2 [1] is reported as “significantly less agonist potency”. Also, the Ki at TLR2 [2] came out at 22 nM.

Regarding `CCCCCCCCCCCCCCCC(=O)OC[C@H](CSC[C@H](NC(=O)COCC(=O)NCCCOCCOCCOCCCNC(C)=O)C(=O)NCC(=O)N[C@H](CO)C(=O)NCCCOCCOCCOCCCNC(=O)COCC(N)=O)OC(=O)CCCCCCCCCCCCCCC` [compound 10, reference compound], the Ki on TLR2 [3] is 24 nM; at TLR2 [2], 91 nM.

By IC50 is commonly meant the concentration at which inhibition is half-maximal. For the compound `CCCCCCCCCCCCCCCC(=O)OCCSC[C@H](NC(=O)COCC(=O)NCCCOCCOCCOCCCNC(=O)c1ccc(C2=C(/C=C/C3=[N+](CCC)c4ccccc4C3(C)C)CCC/C2=C\C=C2\N(CCC)c3ccccc3C2(C)C)cc1)C(=O)NCC(=O)N[C@H](CO)C(=O)NCCCOCCOCCOCCCNC(=O)COCC(N)=O` [Compound 16, IR780-Pego-Cys(S-[palmitoyloxyethyl])-Gly-DSer-PEGO-NH2], the IC50 at TLR2 [1] (0.001 ng/mL to 10 μg/mL, read-out: IC50, inhibition of TLR2 agonistic activity of Pam2CSK4) came to 361 nM. Further, the “agonist activity compared to TLR2 agonist controls (Pam2CSK4, Pam3CSK4, HKLM)” value is recorded as “significant decrease in agonist response” on TLR2 [1] and “complete loss in agonist activity” at TLR2 [1] (listed as compound 16). The “mean tumor fluorescence, unblocked tumor/blocked tumor” value in data set [4] (100 nmol/kg i.v., blocked with 2 μmol/kg Pam2CSK4 (20-fold excess), 24 h) amounted to 2.67 fold. Moreover, in data set [4] (100 nmol/kg i.v., blocked with 2 μmol/kg Pam2CSK4, 24 h post-injection), the “tumor fluorescence in blocked versus unblocked group” value is on record as “significant reduction in the ex vivo fluorescence signal; also recorded: significant reduction in the tumor fluorescence”. Also, the “tumor fluorescence signal by in vivo imaging” value in data set [4] (24 h post-injection) is recorded as “retention of fluorescence signal in the tumor”. The inhibition constant (Ki) at TLR2 [2] is 16 nM.
